Activity calls are given as the source filed them.

Our source for the EC50, IC50 and AC50 values is ChEMBL document CHEMBL1201862, “PubChem BioAssay data set” (2004).

Experiment [1] has as its system HEK293. Kind of experiment: optical interference in Abeta FP readout, dose response, artefact control for IDE activator project, biochemical, fluorescence polarization (AID 588442). Conditions: Homo sapiens. The experiment is classed as functional, cell-based.
Experiment [2] has as its system HEK293. The experiment can be described thus: HEK cell cytotoxicity by LDH release, dose response, cytotoxicity control for IDE activator project, fluorescence, HEK cells (AID 588440).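 Note: cytotoxicity by LDH release measuring loss of membrane integrity.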 The experiment is classed as functional, cell-based. Conditions: Homo sapiens. On the technique in general: LDH leaks from cells whose membrane has failed.
The subject of the next experiment is HeLa. Kind of experiment: HeLa cell cytotoxicity, dose response, cytotoxicity control, 24 h, cherry-picked samples (AID 504726).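 Note: potency for cytotoxicity as loss of luminescence signal.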 The experiment is classed as functional, cell-based. The note with it: Homo sapiens.
The target of experiment [3] is T1, Fibrinogen beta chain (Homo sapiens, UniProt P02675). Kind of experiment: Fluorescence polarization-based biochemical high throughput dose response assay to identify inhibitors that disrupt the binding of a cyclic peptide (Tn6) to the fibrin proteolytic product D-Dimer and fragment E complex [DD(E )]. For orientation: In fluorescence polarisation assays a small probe gives low polarisation when free and higher when bound to something large.

A further experiment has as its target Troponin, cardiac muscle (Homo sapiens, UniProt P19429+P45379+P63316). Kind of experiment: Fluorescence-based biochemical high throughput dose response assay for activators of the calcium sensitivity of cardiac Regulated Thin Filaments (RTF). [Related pubchem assays (depositor defined):AID493008, AID493018, AID504382, AID504383]. The experiment is classed as protein-complex assay.

A further experiment addresses ORF 73 (Human herpesvirus 8, UniProt O40947). The experiment can be described thus: inhibitors of C-LANA binding to LBS DNA, dose response, biochemical, fluorescence polarization, cherry-picked samples (AID 504725).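 Note: fluorescence polarization of a labeled DNA duplex reporting LANA DNA binding; potency is for inhibitors that block LANA binding to the DNA.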 Details: species or system Human gammaherpesvirus 8.
For experiment [4], the target named is T1, Fibrinogen beta chain. The experiment can be described thus: Fluorescence polarization-based biochemical high throughput dose response assay to identify inhibitors that disrupt the binding of a cyclic peptide (Tn7) to the fibrin proteolytic product D-Dimer and fragment E complex [DD(E )].
In experiment [5] the target is T2, Insulin-degrading enzyme (Homo sapiens, UniProt P14735).
T2 sequence (P14735 whole entry): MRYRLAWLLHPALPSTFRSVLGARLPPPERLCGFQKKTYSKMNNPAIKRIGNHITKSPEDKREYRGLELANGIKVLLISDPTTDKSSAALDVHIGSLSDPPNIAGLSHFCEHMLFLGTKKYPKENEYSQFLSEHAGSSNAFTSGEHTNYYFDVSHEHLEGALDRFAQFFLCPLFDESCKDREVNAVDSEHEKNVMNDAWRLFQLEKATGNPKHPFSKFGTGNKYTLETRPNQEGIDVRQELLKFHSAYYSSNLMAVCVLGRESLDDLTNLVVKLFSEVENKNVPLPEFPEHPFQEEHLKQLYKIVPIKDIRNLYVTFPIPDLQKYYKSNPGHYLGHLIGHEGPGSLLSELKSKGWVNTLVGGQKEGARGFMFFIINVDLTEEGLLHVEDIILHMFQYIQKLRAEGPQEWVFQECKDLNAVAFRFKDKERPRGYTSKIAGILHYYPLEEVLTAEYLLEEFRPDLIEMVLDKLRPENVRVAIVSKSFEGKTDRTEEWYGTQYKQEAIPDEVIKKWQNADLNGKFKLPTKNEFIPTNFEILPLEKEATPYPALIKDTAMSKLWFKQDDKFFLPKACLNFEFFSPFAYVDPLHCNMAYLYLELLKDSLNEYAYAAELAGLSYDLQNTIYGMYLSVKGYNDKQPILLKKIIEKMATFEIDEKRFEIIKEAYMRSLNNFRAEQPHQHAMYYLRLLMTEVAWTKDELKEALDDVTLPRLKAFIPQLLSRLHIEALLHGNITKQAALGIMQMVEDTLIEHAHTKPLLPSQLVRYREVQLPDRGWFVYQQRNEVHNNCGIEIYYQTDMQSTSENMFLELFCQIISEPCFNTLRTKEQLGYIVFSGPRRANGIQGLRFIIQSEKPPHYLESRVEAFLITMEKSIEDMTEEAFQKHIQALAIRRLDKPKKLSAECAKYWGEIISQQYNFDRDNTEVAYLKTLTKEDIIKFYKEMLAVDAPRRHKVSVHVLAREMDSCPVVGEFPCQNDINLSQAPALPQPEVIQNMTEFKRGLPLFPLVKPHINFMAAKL
The experiment can be described thus: activators of endogenous IDE in HEK cells, dose response, cell-based, fluorescence polarization (AID 588439). In kind it is functional.

Another experiment has as its target Keap1/Nrf2 (Homo sapiens, UniProt Q14145). The experiment can be described thus: Keap1-Nrf2 protein-protein interaction inhibitors, dose response, biochemical, fluorescence polarization, cherry-picked samples (AID 588683).
Experiment [6] has as its target T2, Insulin-degrading enzyme. Kind of experiment: activators of recombinant IDE enzyme, dose response, counter-screen for IDE activator project, biochemical, fluorescence polarization (AID 588681). A general note: Counterscreens check selectivity or assay interference.
The nature of experiment [7]: growth induction of Burl-1 ts yeast mutant, dose response, counter-screen for SUMOylation pathway inhibitor project, whole organism, S. cerevisiae, luminescence (AID 463199). The experiment is classed as functional.
The target in experiment [8] is T3, Dual specificity protein phosphatase 6 (Rattus norvegicus, UniProt Q64346).
T3 sequence (Q64346 whole entry): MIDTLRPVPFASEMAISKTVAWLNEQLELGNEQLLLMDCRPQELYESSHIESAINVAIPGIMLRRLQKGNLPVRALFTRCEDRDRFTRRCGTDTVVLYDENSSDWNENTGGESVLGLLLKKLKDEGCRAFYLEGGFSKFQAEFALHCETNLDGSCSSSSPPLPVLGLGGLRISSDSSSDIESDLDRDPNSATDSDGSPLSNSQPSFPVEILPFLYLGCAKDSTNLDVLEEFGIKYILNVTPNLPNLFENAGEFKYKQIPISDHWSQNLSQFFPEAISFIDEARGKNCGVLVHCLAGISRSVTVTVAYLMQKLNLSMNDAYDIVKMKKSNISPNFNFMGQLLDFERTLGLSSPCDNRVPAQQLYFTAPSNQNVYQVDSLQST
The experiment is classed as functional.

Experiment [9] concerns the target T4, Tyrosine-protein phosphatase non-receptor type 7 (Homo sapiens, UniProt P35236).
T4 sequence (P35236 whole entry): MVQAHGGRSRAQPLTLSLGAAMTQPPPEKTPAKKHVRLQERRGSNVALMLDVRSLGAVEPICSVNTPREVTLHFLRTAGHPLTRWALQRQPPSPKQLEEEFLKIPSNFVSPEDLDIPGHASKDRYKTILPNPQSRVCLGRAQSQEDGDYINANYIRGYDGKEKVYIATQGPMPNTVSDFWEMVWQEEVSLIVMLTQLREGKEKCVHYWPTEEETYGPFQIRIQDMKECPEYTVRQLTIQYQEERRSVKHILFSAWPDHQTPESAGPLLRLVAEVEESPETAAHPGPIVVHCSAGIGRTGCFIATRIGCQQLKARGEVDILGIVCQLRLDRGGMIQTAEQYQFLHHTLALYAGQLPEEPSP
Kind of experiment: SAR analysis of chemical inhibitors of HePTP using a Fluorescent assay - Set 2. [Related pubchem assays (depositor defined):AID1059, AID1077, AID1661, AID2085, AID521]. In kind it is functional.

In experiment [10] the target is T3, Dual specificity protein phosphatase 6. Kind of experiment: SAR analysis of inhibitors of MKP-3 - Set 2. [Related pubchem assays (depositor defined):AID1055, AID1661, AID425, AID553, AID566]. In kind it is functional.
In experiment [11] the target is T5, Dual specificity protein phosphatase 3 (Homo sapiens, UniProt P51452). The experiment can be described thus: SAR VHR1 Fluorescent Assay for In Vitro dose response studies Set 2. [Related pubchem assays (depositor defined):AID1654, AID1661, AID1878]. In kind it is functional.
For experiment [12], the target named is T5, Dual specificity protein phosphatase 3. The experiment can be described thus: VHR1 phosphatase inhibitors, biochemical (AID 1878).
The target is the same in experiment [13]. The experiment can be described thus: VHR1 phosphatase inhibitors, primary screen, biochemical, absorbance, uHTS (AID 1654).
For experiment [14], the target named is T4, Tyrosine-protein phosphatase non-receptor type 7. The experiment can be described thus: redox-dependent HePTP inhibition, mechanism study, biochemical, fluorescence (AID 2068). In kind it is functional.
The target of experiment [15] is T5, Dual specificity protein phosphatase 3. The experiment can be described thus: SAR VHR1 absorbance Assay for In Vitro dose response studies. [Related pubchem assays (depositor defined):AID1654, AID1661, AID1878, AID1992, AID2004].
Experiment [16] concerns the target 72 kDa type IV collagenase (Homo sapiens, UniProt P08253). Kind of experiment: Dose Response validation of uHTS RPN11 inhibitor hits using a MMP-2 Fluorescence assay. In kind it is functional.
The target in the next experiment is Prothrombin (Bos taurus, UniProt P00735). The experiment can be described thus: thrombin inhibition, dose response, biochemical, fluorescence polarization, uHTS hits (AID 602369). In kind it is functional.
For experiment [17], the target named is 26S proteasome non-ATPase regulatory subunit 14 (Homo sapiens, UniProt O00487). The experiment can be described thus: inhibition of proteasome subunit RPN11 – biochemical, fluorescence polarization, uHTS hits, confirmation (AID 602368). In kind it is functional.
In experiment [18] the target is T5, Dual specificity protein phosphatase 3. The experiment can be described thus: SAR VHR1 Fluorescent Assay for In Vitro dose response studies. [Related pubchem assays (depositor defined):AID1654, AID1661, AID1878, AID1992, AID2004, AID2070, AID2085]. In kind it is functional.
Experiment [19] deals with T3, Dual specificity protein phosphatase 6. Kind of experiment: MKP-3 phosphatase inhibitors, primary screen, biochemical, rat enzyme, in vitro (AID 425).

T5 sequence (P51452 whole entry): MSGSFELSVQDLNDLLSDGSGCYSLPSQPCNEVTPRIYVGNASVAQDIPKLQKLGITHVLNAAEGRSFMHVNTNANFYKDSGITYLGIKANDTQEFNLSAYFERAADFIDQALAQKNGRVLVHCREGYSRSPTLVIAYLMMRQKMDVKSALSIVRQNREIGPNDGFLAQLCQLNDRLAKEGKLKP
T1 sequence (P02675 whole entry, the tested form may be a part): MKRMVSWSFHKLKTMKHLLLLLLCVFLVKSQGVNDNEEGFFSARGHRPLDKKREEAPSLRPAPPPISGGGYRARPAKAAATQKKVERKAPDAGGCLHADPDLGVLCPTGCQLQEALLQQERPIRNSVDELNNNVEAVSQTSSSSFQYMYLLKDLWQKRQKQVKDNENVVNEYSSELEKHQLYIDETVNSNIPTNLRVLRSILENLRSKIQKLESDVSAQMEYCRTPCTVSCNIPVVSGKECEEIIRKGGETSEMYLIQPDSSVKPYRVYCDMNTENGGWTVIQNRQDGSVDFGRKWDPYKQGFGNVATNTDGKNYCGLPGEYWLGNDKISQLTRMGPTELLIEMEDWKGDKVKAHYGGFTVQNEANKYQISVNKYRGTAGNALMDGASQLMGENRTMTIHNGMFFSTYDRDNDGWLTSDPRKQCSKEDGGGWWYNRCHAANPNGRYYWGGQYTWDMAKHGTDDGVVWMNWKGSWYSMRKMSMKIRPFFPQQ
Sequence of Keap1/Nrf2 (Q16236 whole entry): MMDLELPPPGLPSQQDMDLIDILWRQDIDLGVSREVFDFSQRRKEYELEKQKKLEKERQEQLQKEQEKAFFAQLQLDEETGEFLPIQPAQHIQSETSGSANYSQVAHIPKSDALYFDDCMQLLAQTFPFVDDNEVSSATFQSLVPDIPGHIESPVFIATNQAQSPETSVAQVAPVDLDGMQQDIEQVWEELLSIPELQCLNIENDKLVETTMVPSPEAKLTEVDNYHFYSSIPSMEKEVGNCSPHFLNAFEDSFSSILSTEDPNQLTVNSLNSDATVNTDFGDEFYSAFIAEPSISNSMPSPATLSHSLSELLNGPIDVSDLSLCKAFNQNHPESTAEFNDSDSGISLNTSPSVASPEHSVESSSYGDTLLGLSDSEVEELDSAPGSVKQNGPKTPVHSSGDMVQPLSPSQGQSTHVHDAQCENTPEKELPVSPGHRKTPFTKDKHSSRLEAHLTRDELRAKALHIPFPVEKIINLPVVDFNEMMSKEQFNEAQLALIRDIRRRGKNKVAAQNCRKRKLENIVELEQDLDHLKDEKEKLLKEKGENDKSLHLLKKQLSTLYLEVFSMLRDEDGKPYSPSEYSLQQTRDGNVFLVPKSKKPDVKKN
Sequence of Keap1/Nrf2 (Q14145 whole entry): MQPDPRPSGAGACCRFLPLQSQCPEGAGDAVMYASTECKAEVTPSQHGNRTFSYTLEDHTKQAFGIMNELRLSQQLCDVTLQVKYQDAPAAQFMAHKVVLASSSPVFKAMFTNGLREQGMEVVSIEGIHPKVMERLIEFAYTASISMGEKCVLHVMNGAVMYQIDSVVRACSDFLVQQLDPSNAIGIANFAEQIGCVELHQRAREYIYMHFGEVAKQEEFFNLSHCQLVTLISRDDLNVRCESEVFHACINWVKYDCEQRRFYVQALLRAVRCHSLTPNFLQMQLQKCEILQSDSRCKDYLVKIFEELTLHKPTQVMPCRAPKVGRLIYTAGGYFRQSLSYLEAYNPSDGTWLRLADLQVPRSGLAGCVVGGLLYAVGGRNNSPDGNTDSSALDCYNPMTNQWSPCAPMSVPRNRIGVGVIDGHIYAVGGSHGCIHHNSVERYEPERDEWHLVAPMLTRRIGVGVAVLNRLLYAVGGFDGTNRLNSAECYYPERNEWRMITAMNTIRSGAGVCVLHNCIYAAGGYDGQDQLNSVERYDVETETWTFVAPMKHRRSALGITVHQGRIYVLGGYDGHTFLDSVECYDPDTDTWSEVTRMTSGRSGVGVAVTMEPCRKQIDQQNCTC
Sequence of ORF 73 (O40947 whole entry, the tested form may be a part): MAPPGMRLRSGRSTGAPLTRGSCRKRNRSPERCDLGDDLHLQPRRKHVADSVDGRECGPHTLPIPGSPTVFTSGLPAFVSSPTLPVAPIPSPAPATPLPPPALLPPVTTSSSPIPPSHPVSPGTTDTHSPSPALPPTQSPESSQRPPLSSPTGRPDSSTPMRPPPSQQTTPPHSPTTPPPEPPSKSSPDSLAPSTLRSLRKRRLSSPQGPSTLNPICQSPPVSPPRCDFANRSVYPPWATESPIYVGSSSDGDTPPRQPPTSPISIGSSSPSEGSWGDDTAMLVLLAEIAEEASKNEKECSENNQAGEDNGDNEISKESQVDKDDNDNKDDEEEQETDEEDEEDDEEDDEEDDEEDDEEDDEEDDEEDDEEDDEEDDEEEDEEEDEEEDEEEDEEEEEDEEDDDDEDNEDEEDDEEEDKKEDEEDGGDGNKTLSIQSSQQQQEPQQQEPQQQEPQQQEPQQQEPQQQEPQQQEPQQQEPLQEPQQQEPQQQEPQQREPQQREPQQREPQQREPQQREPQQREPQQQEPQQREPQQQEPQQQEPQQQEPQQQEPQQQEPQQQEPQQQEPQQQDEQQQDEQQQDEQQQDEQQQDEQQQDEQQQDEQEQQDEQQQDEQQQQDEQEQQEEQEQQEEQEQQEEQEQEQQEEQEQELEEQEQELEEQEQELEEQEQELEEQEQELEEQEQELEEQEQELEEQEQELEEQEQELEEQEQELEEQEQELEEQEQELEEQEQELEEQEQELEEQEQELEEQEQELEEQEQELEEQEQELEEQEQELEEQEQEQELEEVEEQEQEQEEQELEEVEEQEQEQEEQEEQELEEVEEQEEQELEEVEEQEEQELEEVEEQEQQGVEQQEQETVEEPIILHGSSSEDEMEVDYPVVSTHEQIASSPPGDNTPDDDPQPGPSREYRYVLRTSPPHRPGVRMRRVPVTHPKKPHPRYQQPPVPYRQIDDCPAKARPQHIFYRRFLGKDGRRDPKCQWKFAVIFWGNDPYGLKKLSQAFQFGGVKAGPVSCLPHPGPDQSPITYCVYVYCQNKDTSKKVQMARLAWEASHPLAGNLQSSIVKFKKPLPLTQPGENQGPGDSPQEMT
Sequence of 26S proteasome non-ATPase regulatory subunit 14 (O00487 whole entry): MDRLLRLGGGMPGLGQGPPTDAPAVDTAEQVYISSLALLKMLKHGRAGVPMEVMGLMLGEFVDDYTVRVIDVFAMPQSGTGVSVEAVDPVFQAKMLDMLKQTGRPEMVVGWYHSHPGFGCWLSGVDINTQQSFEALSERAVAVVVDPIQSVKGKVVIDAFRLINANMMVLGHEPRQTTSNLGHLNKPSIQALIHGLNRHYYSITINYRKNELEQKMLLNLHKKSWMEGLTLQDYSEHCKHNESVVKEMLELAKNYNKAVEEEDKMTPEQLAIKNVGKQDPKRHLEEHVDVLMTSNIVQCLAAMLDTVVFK
Sequence of 72 kDa type IV collagenase (P08253 whole entry): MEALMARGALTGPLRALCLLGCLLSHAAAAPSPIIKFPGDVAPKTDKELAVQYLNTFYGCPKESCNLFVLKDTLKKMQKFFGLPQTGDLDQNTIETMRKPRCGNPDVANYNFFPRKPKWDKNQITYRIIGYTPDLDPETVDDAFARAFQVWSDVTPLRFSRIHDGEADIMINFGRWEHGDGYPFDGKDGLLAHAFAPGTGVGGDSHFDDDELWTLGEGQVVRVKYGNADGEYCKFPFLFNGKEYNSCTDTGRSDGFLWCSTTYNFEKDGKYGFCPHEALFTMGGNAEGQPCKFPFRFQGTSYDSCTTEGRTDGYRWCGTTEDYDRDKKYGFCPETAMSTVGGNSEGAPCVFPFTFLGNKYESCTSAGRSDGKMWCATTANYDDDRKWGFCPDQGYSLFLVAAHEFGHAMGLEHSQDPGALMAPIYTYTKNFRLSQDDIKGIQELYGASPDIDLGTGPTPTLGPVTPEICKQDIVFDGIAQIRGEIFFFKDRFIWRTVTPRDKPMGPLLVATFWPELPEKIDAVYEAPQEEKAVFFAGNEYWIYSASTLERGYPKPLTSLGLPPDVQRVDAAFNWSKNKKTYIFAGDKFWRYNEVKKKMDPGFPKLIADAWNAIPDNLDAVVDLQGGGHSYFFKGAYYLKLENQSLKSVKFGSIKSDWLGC

One may read the EC50 as the concentration that produces a half-maximal response. In general, IC50 refers to the concentration that gives 50% inhibition. Usually AC50 stands for the concentration at which the activity in the assay is half-maximal. With `COc1ccc2ccccc2c1C(O)c1nccn1C` (centres undefined), the EC50 was > 54.7 µM (inactive) with HEK293 [1]; 7.99 µM (active) on Troponin, cardiac muscle; > 54.7 µM (inactive) on Insulin-degrading enzyme [5]; > 54.7 µM (inactive) at Insulin-degrading enzyme [6]. Besides, the IC50 was > 89.2 µM (inactive) in the experiment with HEK293 [2], 13.1 µM (inactive) on Fibrinogen beta chain [3] and > 83.3 µM (inactive) at Fibrinogen beta chain [4]. In addition, the half-maximal activity concentration (AC50) is 297 µM (active) in the experiment with HeLa, 3.41 µM (active) on ORF 73 and 1.45 µM (active) at Keap1/Nrf2.

On to `CC1CCN(CCCCOc2cccc(C(C)C)c2)CC1`, for which the AC50 in experiment [7] is 68.4 µM (active).

For the compound `O=C(O)c1ccc(NC(=S)NC(=O)c2ccc(-c3ccc(Br)cc3)o2)cc1`, the IC50 was 55.8 µM (active) in [8]; 0.314 µM (active) in experiment [9]; > 100 µM (inactive) in experiment [10]; 0.226 µM (active) in experiment [11]; 1.88 µM (active) in experiment [12]; 6.72 µM (active) in [13]. The concentration for half-maximal inhibition (IC50) in experiment [14] is 0.227 µM (active); in experiment [15], 3.35 µM (active); in experiment [16], 3.68 µM (active); on Prothrombin, 60.7 µM (active); in experiment [17], 15.2 µM (active); in [18], 3.63 µM (active). Moreover, the IC50 in experiment [19] was 76.7 µM (active).
